Experimental data taken from patent US4752469A, “Potentiators of beta-lactam antibiotics” (E. R. Squibb & Sons, Inc., priority 1984, dated 1988).
Converted amounts (≈) assume the structure as drawn. “Also recorded” adds a separate entry of the source. Like-named read-outs stand apart in the source and are kept apart here. Starred links: 1 amine or outer side, 2 acyl side, 3 side chain; linkers in the order of their positions; H or OH if unused. Non-standard residues stand in square brackets, D forms with d. Residues, ends and D or L forms follow the SMILES beside them. ξ: configuration not given here. *: point of attachment. X1 = CC(=O)N[C@H]1[C@H](OC2CC(C(=O)[*:2])N([*:1])C2CO)O[C@H](CO)[C@@H](OS(=O)(=O)O)[C@@H]1O; βGlcNAc = CC(=O)N[C@@H]1[C@@H](O)[C@H](O)[C@@H](CO)O[C@H]1*; ξE = NC(CCC(=O)O)C(=O)O; ξK = NCCCCC(N)C(=O)O; ξT = CC(O)C(N)C(=O)O; ξS = NC(CO)C(=O)O

Tests used:
[1] = system: Escherichia coli SC 8294; conditions: for Interaction: Escherichia coli SC 8294; for potentiation of β-lactam antibiotics: vs. Escherichia coli, in words
Protocol: (§1) The technique used was the double disk diffusion test, described by D. J. Krogstad and R. C. Moellering, Jr. in: Antibiotics in Laboratory Medicine, ed. V. Lorian, pps. 298-341, Williams and Wilkins, 1980. Disks contained 30 μg of compound, and unless noted otherwise, were placed adjacent to each other on the surface of a nutrient agar seeded with a test organism in a Petri dish.

[2] = system: Proteus rettgeri SC 8479; conditions: for potentiation of cell wall synthesis inhibitors other than β-lactams: Proteus rettgeri system; for potentiation of cell wall synthesis inhibitors other than β-lactams / potentiation of β-lactam antibiotics: in words; for potentiation of β-lactam antibiotics: vs. Proteus rettgeri
Protocol: as §1

[3] = system: gram-negative bacteria; test: enhancement of antibacterial activity of β-lactam antibiotics (general statement); format: cell-based; conditions: e.g., aztreonam, ampicillin, piperacillin and moxalactam, in words
From the text: Moellering, Jr. in: Antibiotics in Laboratory Medicine, ed. V. Lorian, pps. 298-341, Williams and Wilkins, 1980.

[4] = system: Proteus vulqaris SC 9416; conditions: agar dilution
[5] = system: Proteus mirabilis SC 3855; conditions: agar dilution
[6] = system: Staphylococcus aureus SC 1276; conditions: agar dilution
[7] = system: Proteus rettgeri SC 8479; conditions: agar dilution
[8] = system: Salmonella typhosa SC 1195
[9] = 30 μg/disc compound plus Cefoxitin 30 μg/disc
[10] = 30 μg/disc compound plus Cephalothin 30 μg/disc
[11] = 30 μg/disc compound plus Mecillinam 10 μg/disc
[12] = 30 μg/disc compound plus N--f-thienamycin 30 μg/disc

Row | SMILES | Interaction [1, 9] | Interaction [1, 10] | Interaction [1, 11] | Interaction [1, 12] | potentiation of β-lactam antibiotics [1] | potentiation of cell wall synthesis inhibitors other than β-lactams [2] | potentiation of β-lactam antibiotics [2] | enhancement of the antibacterial activity of β-lactam antibiotics [3] | other results
1 | CC(=O)N[C@@H]1[C@H](O[C@@H]2C[C@@H](C(=O)N[C@@H](CCCCN)C(=O)N[C@H](C(=O)N[C@@H](CO)C(=O)O)[C@@H](C)O[C@@H]3O[C@@H](CO)[C@@H](O)[C@H](O)[C@@H]3NC(C)=O)NC2CO)O[C@@H](CO)[C@@H](OS(=O)(=O)O)[C@@H]1O (some centres unmarked) [SQ 28,504] | I | I | I | I | potentiate the activity of β-lactam antibiotics | potentiation occurs with cell wall synthesis inhibitors other than β-lactams | potentiate the activity of β-lactam antibiotics | potentiates the antibiotic activity of several β-lactam antibiotics; also recorded: enhance the antibacterial activity of β-lactam antibiotics | 
2 | CC(=O)N[C@H]1[C@H](OC2CC(C(=O)NC(CCCCN)C(=O)NC(C(=O)NC(CO)C(=O)NC(CCC(=O)O)C(=O)NC(CO)C(=O)O)C(C)O[C@@H]3O[C@H](CO)[C@@H](O)[C@H](O)[C@H]3NC(C)=O)NC2CO)O[C@H](CO)[C@@H](OS(=O)(=O)O)[C@@H]1O (some centres unmarked) [SQ 28,546] (H-[X1][ξK][ξT](βGlcNAc)[ξS][ξE][ξS]-OH) | I | I | I | I | potentiate the activity of β-lactam antibiotics | potentiation occurs with cell wall synthesis inhibitors other than β-lactams | potentiate the activity of β-lactam antibiotics | potentiates the antibiotic activity of several β-lactam antibiotics; also recorded: enhance the antibacterial activity of β-lactam antibiotics | MIC [4]: 12.5 µg/mL (≈ 10.6 µM); MIC [5]: 25 µg/mL (≈ 21.2 µM); MIC [6]: > 100 µg/mL; MIC [7]: 12.5 µg/mL (≈ 10.6 µM); MIC [8]: 25.0 µg/mL (≈ 21.2 µM); Interaction ([1]; 30 μg/disc compound plus Azocillin 30 μg/disc): I; Interaction ([1]; 30 μg/disc compound plus Cefamandole 30 μg/disc): I; Interaction ([1]; 30 μg/disc compound plus Cefotaxime 30 μg/disc): I; Interaction ([1]; 30 μg/disc compound plus Diumycin 30 μg/disc): I; Interaction ([1]; 30 μg/disc compound plus Fosfonomycin 30 μg/disc): I; Interaction ([1]; 30 μg/disc compound plus Penicillin G 100 Units/disc): I; Interaction ([1]; 30 μg/disc compound plus Vancomycin 30 μg/disc): I; Interaction ([2]; 30 μg/disc compound plus Vancomycin 30 μg/disc, Proteus rettgeri SC 8479): I
